Laboratory results: ChEMBL document CHEMBL4000193, “Discovery of a Chemical Probe Bisamide (CCT251236): An Orally Bioavailable Efficacious Pirin Ligand from a Heat Shock Transcription Factor 1 (HSF1) Phenotypic Screen” (J Med Chem, 2017)
Each block holds one compound with its values, some of them ahead of it. Activity calls are given as the source filed them. No cut-off for these calls is given here.

Columns and labels:
SK-OV-3 = experiment: cells; settings: Homo sapiens, SK-OV-3, 96 h, read-out: pGI50 (converted)
Description: Antiproliferative activity against human SKOV3 cells after 96 hrs by CellTiter Blue assay

WM 266-4 = experiment: Anti-migratory activity against human WM266.4 cells at 1 to 1000 nM after 30 hrs by scratch-wound assay; type: functional, cell-based
[1] = Drug uptake in NCr nude mouse tumor xenografted with human SKOV3 cells at 20 mg/kg, po qd measured after 33 days; type: ADME, organism-based, Neoplasm; settings: read-out: Drug uptake

SMILES: Cc1ccc(NC(=O)c2ccc3c(c2)OCCO3)cc1NC(=O)c1ccc2nc(OCCN3CCCCC3)ccc2c1
GI50 (SK-OV-3): 1.07 nM

SMILES: Cc1ccc(NC(=O)c2cccc3c2OCCO3)cc1NC(=O)c1ccc2nc(OCCN3CCCC3)ccc2c1
Activity (WM 266-4): inactive

concentration at […] [1]: 940 nM
SMILES: Cc1ccc(NC(=O)c2ccc3c(c2)OCCO3)cc1NC(=O)c1ccc2nc(OCCN3CCCC3)ccc2c1
